Measured values from US6984656B2, “Core modified porphyrins” (priority 2001, dated 2006).

Columns and labels:
[1] = tested on: Colo-26 cells; test: Dark and light-induced toxicity toward Colo-26 cells in culture; format: cell-based, murine
Protocol: In order to compare relative phototoxicity, the core-modified porphyrins of Table 1 were evaluated in culture for dark and light-induced toxicities toward Colo-26 cells, a murine colon carcinoma cell line.

[2] = Rate of photobleaching in phosphate-buffered saline; format: physicochemical; conditions: PBS; 570-750 nm light at 500 mW cm^−2; constant initial absorbance
Source text: One limitation of PDT dosimetry is the rate of photobleaching of the photosensitizer, which can be problematic with Photofrin® and even more problematic with the bacteriochlorins and the chlorins (such as HPPH).

[3] = tested on: MCF-7 cells; test: Photosensitizer uptake in cultured MCF-7 cells by fluorescence; format: cell-based; conditions: 10 μM and 100 μM, 24 h
Protocol: To establish baseline fluorescence, control cells incubated with MEM not containing either photosensitizer were used. […] A time course to determine when the fluorescence approached its maximum was performed for DH-82 and Photofrin®.
To determine the final intracellular concentrations of each sensitizer, cells in 96-well plates were incubated with sensitizer for 24 h. Detection of fluorescence in sensitizer-treated cells was made directly in the wells of the 96-well plate using the appropriate excitation and emission wavelengths.
Photosensitizer uptake experiments are conducted with fluorescent sensitizers. First, cells will be removed from 100-mm dishes by trypsinization (see above) and seeded on 96-well plates at 5×10^4 cells/well in 200 μL of MEM. […] To establish baseline fluorescence, control cells incubated with MEM not containing any photosensitizer are used. […] Fluorescence of the cells is determined using a Spectramax Gemini spectrofluorimeter (Molecular Devices, Sunnyvale, Calif.). Sensitizers will be compared according to the rate at which the fluorescence approached its maximum final emission per 10^5 cells as well as by the final sensitizer concentrations in cells. The fluorescence values calculated for 10^5 cells will be compared to a standard curve of fluorescence obtained from known concentrations of each sensitizer.

[4] = tested on: BALB/c mice; test: Preliminary toxicity, single intravenous injection in BALB/c mice

**Q.** Which EC50 ([1]; 4 J cm^−2 of 590-800 nm light, read-out: EC50 against Colo-26 cells) does the source give for `O=C([O-])COc1ccc(-c2c3nc(c(-c4ccc(F)cc4)c4ccc(s4)c(-c4ccc(F)cc4)c4nc(c(-c5ccc(OCC(=O)[O-])cc5)c5ccc2s5)C=C4)C=C3)cc1.[Na+].[Na+]` [MA-99] here?
**A.** 430 nM

**Q.** What about the “phototoxicity relative to Photofrin® with laser excitation (FIG. 4a)” value ([1]; Colo-26 cells, 694 nm dye laser for DH-82 and MA-99, 630 nm dye laser for Photofrin®) of the same compound?
**A.** significantly greater phototoxicity at lower concentrations than Photofrin®

**Q.** And the “rate of photobleaching (kbleach)” value [2]?
**A.** 0.16 ± 0.02 × 10^4 s^−1

**Q.** What about the “final intracellular concentration relative to that for DH-82” value [3] of the same compound?
**A.** approximately 80%

**Q.** What about the “gross abnormalities in organs and tissues after sacrifice” value ([4]; 10 mg/kg i.v., after 90 days) of the same compound?
**A.** no gross abnormalities were noted

**Q.** What about the toxicity and morbidity ([4]; 10 mg/kg, followed 90 days post-injection, normal vivarium light) of the same compound?
**A.** neither toxicity nor morbidity was observed
